Results as given in the supplement of paper PMC12076712.

Columns and labels:
Assay in all cases: pIC50, kinobeads binding competition
[1] = molecular target: T1, UniProt Q8TF76
T1 sequence (whole entry): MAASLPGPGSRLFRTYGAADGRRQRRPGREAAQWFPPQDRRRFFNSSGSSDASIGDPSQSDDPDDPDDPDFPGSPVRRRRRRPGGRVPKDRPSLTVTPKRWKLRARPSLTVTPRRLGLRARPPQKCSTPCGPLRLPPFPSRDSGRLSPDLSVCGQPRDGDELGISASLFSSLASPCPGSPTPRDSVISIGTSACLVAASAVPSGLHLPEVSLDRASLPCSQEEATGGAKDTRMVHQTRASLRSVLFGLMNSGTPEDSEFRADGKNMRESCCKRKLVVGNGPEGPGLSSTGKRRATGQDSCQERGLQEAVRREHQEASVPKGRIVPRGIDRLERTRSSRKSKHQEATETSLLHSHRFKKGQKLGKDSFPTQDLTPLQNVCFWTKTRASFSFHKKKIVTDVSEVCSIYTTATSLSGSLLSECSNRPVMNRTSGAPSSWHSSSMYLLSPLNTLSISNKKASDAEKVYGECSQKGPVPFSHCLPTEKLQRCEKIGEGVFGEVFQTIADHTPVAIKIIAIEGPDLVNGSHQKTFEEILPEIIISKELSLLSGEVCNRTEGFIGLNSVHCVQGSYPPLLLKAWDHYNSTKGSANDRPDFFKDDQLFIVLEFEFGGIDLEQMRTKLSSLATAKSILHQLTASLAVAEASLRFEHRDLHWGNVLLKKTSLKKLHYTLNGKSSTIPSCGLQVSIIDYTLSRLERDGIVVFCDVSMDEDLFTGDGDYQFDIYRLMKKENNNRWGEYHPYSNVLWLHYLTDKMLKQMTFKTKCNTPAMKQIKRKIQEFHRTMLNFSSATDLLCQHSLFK
Outline: (§1)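 To obtain pIC50, fold changes versus vehicle were fitted to logistic dose-response curves (R drc package) across biological duplicates. Protein binding to Kinobeads was quantified by TMT10 LC-MS/MS of digested bead-bound proteins. Treatments used nine concentrations with a top of 30 μM, applied to live Jurkat cells in 1:4 steps for 60 min at 37 °C before lysis, or to Jurkat lysate or a 1:1:1:1 HEK293/K-562/HepG2/placenta lysate mix in 1:5 steps for 60 min at 4 °C.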

[2] = molecular target: UniProt P48729
Outline: as §1

[3] = molecular target: T2, UniProt P35626
T2 sequence (whole entry): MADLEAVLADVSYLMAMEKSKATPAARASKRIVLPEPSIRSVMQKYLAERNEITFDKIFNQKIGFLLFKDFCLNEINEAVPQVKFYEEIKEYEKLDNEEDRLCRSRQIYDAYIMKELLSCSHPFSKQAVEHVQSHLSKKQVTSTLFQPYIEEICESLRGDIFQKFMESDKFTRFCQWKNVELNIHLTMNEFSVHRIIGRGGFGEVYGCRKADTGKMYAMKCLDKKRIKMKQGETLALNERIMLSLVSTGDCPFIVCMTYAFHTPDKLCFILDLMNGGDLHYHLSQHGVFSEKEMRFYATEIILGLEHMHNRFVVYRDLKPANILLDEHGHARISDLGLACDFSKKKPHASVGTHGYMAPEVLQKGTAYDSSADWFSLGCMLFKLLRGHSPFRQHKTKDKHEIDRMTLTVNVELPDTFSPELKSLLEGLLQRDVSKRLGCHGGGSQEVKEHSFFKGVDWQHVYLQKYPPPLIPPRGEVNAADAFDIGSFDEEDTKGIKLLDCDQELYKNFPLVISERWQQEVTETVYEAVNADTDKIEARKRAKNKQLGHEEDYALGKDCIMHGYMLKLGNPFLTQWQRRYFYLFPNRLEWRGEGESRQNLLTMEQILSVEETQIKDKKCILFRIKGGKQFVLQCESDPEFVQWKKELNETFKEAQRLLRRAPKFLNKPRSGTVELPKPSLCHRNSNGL
Outline: as §1

[4] = molecular target: T3, UniProt O14757
T3 sequence (whole entry): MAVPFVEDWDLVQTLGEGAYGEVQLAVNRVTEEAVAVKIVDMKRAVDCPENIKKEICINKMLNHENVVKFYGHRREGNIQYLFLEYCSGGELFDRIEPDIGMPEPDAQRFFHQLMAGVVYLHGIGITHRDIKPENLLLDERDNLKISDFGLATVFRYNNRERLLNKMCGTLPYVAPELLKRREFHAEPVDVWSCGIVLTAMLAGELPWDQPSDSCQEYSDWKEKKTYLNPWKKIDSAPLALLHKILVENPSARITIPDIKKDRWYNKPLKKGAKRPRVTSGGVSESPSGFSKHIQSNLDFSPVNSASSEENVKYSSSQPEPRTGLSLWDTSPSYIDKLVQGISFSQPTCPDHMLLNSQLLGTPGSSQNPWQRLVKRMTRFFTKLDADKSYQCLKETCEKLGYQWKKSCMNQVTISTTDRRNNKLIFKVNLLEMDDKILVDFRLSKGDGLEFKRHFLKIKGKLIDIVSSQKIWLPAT
Outline: as §1

[5] = molecular target: UniProt P49674
Outline: as §1

[6] = molecular target: T4, UniProt P45985
T4 sequence (whole entry): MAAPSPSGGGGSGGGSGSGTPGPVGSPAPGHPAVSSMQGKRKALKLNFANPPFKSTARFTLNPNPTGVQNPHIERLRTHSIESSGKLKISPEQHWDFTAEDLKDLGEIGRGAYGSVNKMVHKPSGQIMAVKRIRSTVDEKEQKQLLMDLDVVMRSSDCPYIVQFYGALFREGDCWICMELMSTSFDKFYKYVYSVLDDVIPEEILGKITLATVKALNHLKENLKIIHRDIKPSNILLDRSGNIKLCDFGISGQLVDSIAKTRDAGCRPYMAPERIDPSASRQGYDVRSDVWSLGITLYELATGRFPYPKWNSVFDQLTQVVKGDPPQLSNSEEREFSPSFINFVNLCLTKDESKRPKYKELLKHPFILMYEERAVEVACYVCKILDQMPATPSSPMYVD
Outline: as §1

UniProt P49674, sequence (P49674 whole entry, looked up): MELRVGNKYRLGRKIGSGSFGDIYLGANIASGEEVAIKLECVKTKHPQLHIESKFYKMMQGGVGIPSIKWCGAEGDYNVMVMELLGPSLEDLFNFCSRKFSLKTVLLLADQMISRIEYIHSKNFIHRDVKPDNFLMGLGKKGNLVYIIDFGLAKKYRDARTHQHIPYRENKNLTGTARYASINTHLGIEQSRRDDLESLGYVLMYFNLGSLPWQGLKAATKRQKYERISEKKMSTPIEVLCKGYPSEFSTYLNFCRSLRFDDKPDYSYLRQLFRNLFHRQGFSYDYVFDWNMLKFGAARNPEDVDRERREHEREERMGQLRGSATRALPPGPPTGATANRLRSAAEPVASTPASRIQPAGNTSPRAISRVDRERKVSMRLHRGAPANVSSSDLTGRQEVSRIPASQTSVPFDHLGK
UniProt P48729, sequence (P48729 whole entry, looked up): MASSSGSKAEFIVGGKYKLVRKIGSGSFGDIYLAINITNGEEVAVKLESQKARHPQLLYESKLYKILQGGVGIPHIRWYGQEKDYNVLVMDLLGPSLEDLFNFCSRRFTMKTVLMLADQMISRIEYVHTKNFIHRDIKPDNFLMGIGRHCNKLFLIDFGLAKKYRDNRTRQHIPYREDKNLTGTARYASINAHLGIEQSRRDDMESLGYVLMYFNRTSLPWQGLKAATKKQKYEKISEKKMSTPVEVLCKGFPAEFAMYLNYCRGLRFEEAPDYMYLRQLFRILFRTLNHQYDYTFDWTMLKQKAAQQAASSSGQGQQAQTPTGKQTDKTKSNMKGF

SMILES | pIC50 ([1]; cell material: Jurkat cells) | pIC50 ([1]; cell material: Jurkat lysate) | pIC50 ([1]; cell material: Lysate mix) | pIC50 ([2]; cell material: Jurkat cells) | pIC50 ([2]; cell material: Jurkat lysate) | pIC50 ([2]; cell material: Lysate mix) | pIC50 ([3]; cell material: Jurkat cells) | pIC50 ([3]; cell material: Jurkat lysate) | pIC50 ([4]; cell material: Jurkat cells) | pIC50 ([4]; cell material: Jurkat lysate) | pIC50 ([4]; cell material: Lysate mix) | pIC50 ([5]; cell material: Jurkat cells) | pIC50 ([5]; cell material: Jurkat lysate) | pIC50 ([5]; cell material: Lysate mix) | pIC50 ([6]; cell material: Jurkat cells) | pIC50 ([6]; cell material: Jurkat lysate) | pIC50 ([6]; cell material: Lysate mix) | pIC50 ([3]; cell material: Lysate mix)
C#CCNC(=O)c1cc(Nc2cc(C3CC3)[nH]n2)nc(N2CCN(Cc3ccc(S(=O)(=O)F)cc3)CC2)n1 | 5.26 | < 4.52 | < 4.52 | 5.51 | < 4.52 | < 4.52 | 5.77 | < 4.52 | 5.16 | < 4.52 | < 4.52 | 5.4 | < 4.52 | < 4.52 | 5.86 | < 4.52 | 4.82 | –
C#CCNC(=O)c1cc(Nc2cc(C)[nH]n2)nc(N2CCN(Cc3ccc(S(=O)(=O)F)cc3)CC2)n1 | – | – | < 4.52 | – | – | < 4.52 | – | – | – | – | < 4.52 | – | – | < 4.52 | – | – | < 4.52 | < 4.52
Cc1cc(Nc2cc(C(=O)NCCNC(=O)OC3CC/C=C/CCC3)nc(N3CCN(Cc4ccc(S(=O)(=O)F)cc4)CC3)n2)n[nH]1 (stereo not given) | – | – | < 4.52 | – | – | < 4.52 | – | – | – | – | < 4.52 | – | – | < 4.52 | – | – | < 4.52 | < 4.52
O=C(NCCNC(=O)c1cc(Nc2cc(C3CC3)[nH]n2)nc(N2CCN(Cc3ccc(S(=O)(=O)F)cc3)CC2)n1)OC1CC/C=C/CCC1 (stereo not given) | < 4.52 | < 4.52 | < 4.52 | – | < 4.52 | < 4.52 | – | < 4.52 | < 4.52 | < 4.52 | < 4.52 | – | < 4.52 | < 4.52 | – | < 4.52 | < 4.52 | < 4.52
CCNC(=O)c1cc(Nc2cc(C)[nH]n2)nc(N2CCN(Cc3ccc(S(=O)(=O)F)cc3)CC2)n1 | – | – | < 4.52 | – | – | < 4.52 | – | – | – | – | < 4.52 | – | – | < 4.52 | – | – | < 4.52 | < 4.52
CCNC(=O)c1cc(Nc2cc(C3CC3)[nH]n2)nc(N2CCN(Cc3ccc(S(=O)(=O)F)cc3)CC2)n1 | – | – | < 4.52 | – | – | < 4.52 | – | – | – | – | < 4.52 | – | – | < 4.52 | – | – | 4.88 | < 4.52
